Source: article PMC6257796, “Effects of Eupatilin and Jaceosidin on Cytochrome P450 Enzyme Activities in Human Liver Microsomes” (Molecules, 2010)

Experiments:
Assay type in all cases: in vitro ADME
[1] = molecular target: T1, CYP2C9 (Homo sapiens, UniProt P11712); assay: Cocktail probe assay in pooled human liver microsomes: diclofenac 4-hydroxylation (IC50); details: 10 μM diclofenac
T1 construct: pooled human liver microsomes (0.25 mg/mL); tissue BD Gentest Co. H161; host or cells: pooled human liver microsomes
Protocol: (§1) The inhibitory potencies (IC50 values) of eupatilin and jaceosidin were determined with CYP assays in the presence and absence of eupatilin and jaceosidin (final concentrations of 0.1−100 μM with acetonitrile concentration of less than 0.5% v/v) using pooled human liver microsomes. Phenacetin O-deethylase, coumarin 7-hydroxylase, amodiaquine N-deethylase, diclofenac hydroxylase, [S]-mephenytoin 4'-hydroxylase, bufuralol 1'-hydroxylase, and midazolam 1'-hydroxylase activities were determined as probe activities for CYP1A2, CYP2A6, CYP2C8, CYP2C9, CYP2C19, CYP2D6, and CYP3A, respectively, using cocktail incubation and tandem mass spectrometry. The incubation mixtures were prepared in a total volume of 200 μL as follows: pooled human liver microsomes (0.25 mg/mL), 1.3 mM NADPH, 3.3 mM MgCl2, 50 mM potassium phosphate buffer (pH 7.4), and a cocktail of probe substrates and various concentrations of eupatilin or jaceosidin (0.1−100 μM). […] After a 3 min preincubation at 37 °C, the reactions were initiated by adding NADPH and incubated for 20 min at 37 °C with shaking in a water bath. After incubation, the reaction was stopped by placing the tubes on ice and adding 100 μL of ice-cold acetonitrile containing internal standards (0.5 μg/mL [^13C,^15N]-acetaminophen for acetaminophen and N-desethylamodiaquine, 0.5 μg/mL [^2H5]-7-hydroxycoumarin for 7-hydroxycoumarin, 2.0 μg/mL [^13C6]-4-hydoxydiclofenac for 4-hydoxydiclofenac, 0.5 μg/mL [^2H3]-4'-hydoxymephenytoin for 4-hydoxymephenytoin and 1'-hydroxymidazolam, and 0.5 μg/mL [^2H7]-1'-hydroxybufuralol for 1'-hydroxybufuralol). The incubation mixtures were then centrifuged at 10,000× g for 5 min. All incubations were performedin triplicate.
(§2) To evaluate the effect of preincubation on inhibitory potency, eupatilin and jaceosidin (0.1−100 μM) were preincubated for 30 min with NADPH, buffer, and microsomes before the addition of the CYP probe substrates. The reaction was started by addition of the cocktail of probe substrates.
(§3) All seven metabolites produced from the cocktail of CYP isoform-specific substrates were simultaneously determined by LC/MS/MS. The system consisted of a tandem quadrupole mass spectrometer (TSQ Quantum Access, ThermoFisher Scientific, CA, USA) coupled with a Nanospace SI-2 LC system. The separation was performed on an Atlantis dC18 column (5 μm, 2.1 mm i.d. × 100 mm, Waters, Waltham, MA, USA) using the gradient elution of a mixture of 5% methanol in 0.1% formic acid (mobile phase A) and 95% methanol in 0.1% formic acid (mobile phase B) at a flow rate of 0.25 mL/min: 10% mobile phase B for 1 min, 10% to 95% mobile phase B for 1 min, 95% mobile phase B for 5 min. […] Quantification was performed by selected reaction monitoring (SRM) of the [M+H]^+ ion and the related product ion for each metabolite. […]

[2] = molecular target: T2, CYP2C19 (Homo sapiens, UniProt P33261); assay: Cocktail probe assay in pooled human liver microsomes: [S]-mephenytoin 4'-hydroxylation (IC50); details: 50 μM [S]-mephenytoin
T2 construct: pooled human liver microsomes (0.25 mg/mL); tissue BD Gentest Co. H161; host or cells: pooled human liver microsomes
Protocol: as §1, §2, §3

[3] = molecular target: T2, CYP2C19; assay: Kinetic analysis (Ki, inhibition type) in human liver microsomes: [S]-mephenytoin 4'-hydroxylation; details: pooled human liver microsomes; for Inhibition type, S-mephenytoin 4'-hydroxylation (CYP2C19): Lineweaver, Dixon and secondary reciprocal plots
Protocol: (§4) The Ki values and inhibition types (competitive, noncompetitive, uncompetitive, or mixed) were determined for eupatilin and jaceosidin using Lineweaver plots, Dixon plots, and secondary reciprocal plots.
(§5) The reactions were initiated by addition of NADPH at 37 °C and stopped after 15 min by placing the incubation tubes on ice and adding 100 μL of ice-cold methanol containing an internal standard. The incubation mixtures were centrifuged at 10,000' g for 5 min, and aliquots (5 μL) of the supernatants were analyzed by liquid chromatography/tandem mass spectrometry (LC/MS/MS).
(§6) All seven metabolites produced from the cocktail of CYP isoform-specific substrates were simultaneously determined by LC/MS/MS. The system consisted of a tandem quadrupole mass spectrometer (TSQ Quantum Access, ThermoFisher Scientific, CA, USA) coupled with a Nanospace SI-2 LC system. The separation was performed on an Atlantis dC18 column (5 μm, 2.1 mm i.d. × 100 mm, Waters, Waltham, MA, USA) using the gradient elution of a mixture of 5% methanol in 0.1% formic acid (mobile phase A) and 95% methanol in 0.1% formic acid (mobile phase B) at a flow rate of 0.25 mL/min: 10% mobile phase B for 1 min, 10% to 95% mobile phase B for 1 min, 95% mobile phase B for 5 min. The column and autosampler temperatures were 50 °C and 4 °C, respectively. After 1.5 min, the LC eluant was diverted from waste to the mass spectrometer that was fitted with an electrospray ionization (ESI) source and operated in the positive ion mode. The ESI source settings for the ionization of the metabolites were as follows: electrospray voltage, 5.0 kV; vaporizer temperature, 420 °C; capillary temperature 360 °C; sheath gas pressure, 35 psi; auxiliary gas pressure, 10 psi. Quantification was performed by selected reaction monitoring (SRM) of the [M+H]^+ ion and the related product ion for each metabolite. The analytical data were processed using Xcalibur® software (ThermoFisher Scientific).
(§7) The IC50 values (concentration of inhibitor causing 50% inhibition of the original enzyme activity) were calculated using WinNonlin software, a non-linear regression analysis program (Pharsight, Mountain View, CA, USA). The apparent kinetic parameters for inhibitory potential (Ki values) were estimated from the fitted curves using Enzyme Kinetics Ver. 1.3 program (Systat Software Inc., San Jose, CA, USA).

[4] = molecular target: T3, CYP2D6 (Homo sapiens, UniProt P10635); assay: Kinetic analysis (Ki, inhibition type) in human liver microsomes: bufuralol 1'-hydroxylation; details: pooled human liver microsomes
T3 construct: pooled human liver microsomes (0.25 mg/mL); tissue BD Gentest Co. H161; host or cells: pooled human liver microsomes
Protocol: as §4, §5, §6, §7

[5] = molecular target: T4, CYP1A2 (Homo sapiens, UniProt P05177); assay: Kinetic analysis (Ki, inhibition type) in human liver microsomes: phenacetin O-deethylation; details: pooled human liver microsomes
T4 construct: pooled human liver microsomes (0.25 mg/mL); tissue BD Gentest Co. H161; host or cells: pooled human liver microsomes
T4 sequence (P05177 1-516): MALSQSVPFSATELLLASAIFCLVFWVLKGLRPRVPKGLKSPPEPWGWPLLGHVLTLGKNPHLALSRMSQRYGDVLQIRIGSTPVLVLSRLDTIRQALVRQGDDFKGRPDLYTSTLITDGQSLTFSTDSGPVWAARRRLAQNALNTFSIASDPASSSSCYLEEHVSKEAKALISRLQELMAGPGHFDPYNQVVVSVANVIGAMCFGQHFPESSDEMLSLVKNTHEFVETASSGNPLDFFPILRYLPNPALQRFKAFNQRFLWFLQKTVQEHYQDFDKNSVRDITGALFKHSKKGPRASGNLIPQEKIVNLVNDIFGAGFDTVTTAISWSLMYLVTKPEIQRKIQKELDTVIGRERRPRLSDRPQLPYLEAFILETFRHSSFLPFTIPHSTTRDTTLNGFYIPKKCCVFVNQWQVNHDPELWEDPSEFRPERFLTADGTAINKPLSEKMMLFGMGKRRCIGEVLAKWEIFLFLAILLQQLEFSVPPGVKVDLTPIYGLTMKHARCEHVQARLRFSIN
Protocol: as §4, §5, §6, §7

[6] = molecular target: T5, CYP2C8 (Homo sapiens, UniProt P10632); assay: Cocktail probe assay in pooled human liver microsomes: amodiaquine N-deethylation (IC50); details: 2.0 μM amodiaquine, no preincubation
T5 construct: pooled human liver microsomes (0.25 mg/mL); tissue BD Gentest Co. H161; host or cells: pooled human liver microsomes
T5 sequence (P10632 1-490): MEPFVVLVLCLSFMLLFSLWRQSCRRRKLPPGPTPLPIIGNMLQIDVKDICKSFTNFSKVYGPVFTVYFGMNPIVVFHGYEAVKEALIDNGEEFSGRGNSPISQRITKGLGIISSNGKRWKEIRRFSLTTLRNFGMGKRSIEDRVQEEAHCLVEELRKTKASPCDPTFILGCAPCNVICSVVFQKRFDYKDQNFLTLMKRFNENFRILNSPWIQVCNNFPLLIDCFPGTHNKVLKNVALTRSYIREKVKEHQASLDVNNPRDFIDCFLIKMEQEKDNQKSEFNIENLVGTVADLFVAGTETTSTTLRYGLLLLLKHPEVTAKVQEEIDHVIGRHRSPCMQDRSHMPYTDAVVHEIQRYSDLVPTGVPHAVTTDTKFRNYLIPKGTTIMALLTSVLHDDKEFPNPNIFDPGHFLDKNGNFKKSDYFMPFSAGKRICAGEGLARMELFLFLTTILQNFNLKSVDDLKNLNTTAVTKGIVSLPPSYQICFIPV
Protocol: as §1, with “After incubation, the reaction was stopped by placing the tubes on ice and adding 100 μL of ice-cold acetonitrile containing internal standards (0.5 μg/mL [^13C,^15N]-acetaminophen for acetaminophen and N-desethylamodiaquine, 0.5 μg/mL [^2H5]-7-hydroxycoumarin for 7-hydroxycoumarin, 2.0 μg/mL [^13C6]-4-hydoxydiclofenac for 4-hydoxydiclofenac, 0.5 μg/mL [^2H3]-4'-hydoxymephenytoin for 4-hydoxymephenytoin and 1'-hydroxymidazolam, and 0.5 μg/mL [^2H7]-1'-hydroxybufuralol for 1'-hydroxybufuralol). The incubation mixtures were then centrifuged at 10,000× g for 5 min. All incubations were performedin triplicate.” left out
All seven metabolites produced from the cocktail of CYP isoform-specific substrates were simultaneously determined by LC/MS/MS. […] Quantification was performed by selected reaction monitoring (SRM) of the [M+H]^+ ion and the related product ion for each metabolite. […]

[7] = tested on: CYP3A; assay: Cocktail probe assay in pooled human liver microsomes: midazolam 1'-hydroxylation (IC50); details: for IC50, midazolam 1'-hydroxylation (CYP3A): pooled human liver microsomes, 2.5 μM midazolam
Protocol: as §1, §2, §6, §7

[8] = molecular target: T6, CYP2A6 (Homo sapiens, UniProt P11509); assay: Cocktail probe assay in pooled human liver microsomes: coumarin 7-hydroxylation (IC50); details: for IC50, coumarin 7-hydroxylation (CYP2A6): pooled human liver microsomes, 2.5 μM coumarin
T6 construct: pooled human liver microsomes (0.25 mg/mL); tissue BD Gentest Co. H161; host or cells: pooled human liver microsomes
T6 sequence (P11509 1-494): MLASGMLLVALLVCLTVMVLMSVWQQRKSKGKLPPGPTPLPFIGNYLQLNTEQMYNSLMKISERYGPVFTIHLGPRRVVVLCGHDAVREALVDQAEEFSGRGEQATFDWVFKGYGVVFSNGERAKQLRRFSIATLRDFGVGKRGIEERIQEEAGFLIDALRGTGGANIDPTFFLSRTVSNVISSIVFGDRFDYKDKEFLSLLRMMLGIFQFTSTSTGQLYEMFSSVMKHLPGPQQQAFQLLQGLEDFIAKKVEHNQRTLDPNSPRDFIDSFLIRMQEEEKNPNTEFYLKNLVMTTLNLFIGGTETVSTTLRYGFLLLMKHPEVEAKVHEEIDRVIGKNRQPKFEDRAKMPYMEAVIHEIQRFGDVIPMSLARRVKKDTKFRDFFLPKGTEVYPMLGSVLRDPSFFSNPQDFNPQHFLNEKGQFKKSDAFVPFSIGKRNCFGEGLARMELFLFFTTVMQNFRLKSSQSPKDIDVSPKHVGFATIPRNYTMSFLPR
Protocol: as §1, §2, §6, §7

[9] = molecular target: T3, CYP2D6; assay: Cocktail probe assay in pooled human liver microsomes: bufuralol 1'-hydroxylation (IC50); details: 5.0 μM bufuralol
Protocol: as §1, §2, §3

[10] = molecular target: T4, CYP1A2; assay: Cocktail probe assay in pooled human liver microsomes: phenacetin O-deethylation (IC50); details: 50 μM phenacetin
Protocol: as §1, §2, §3

[11] = molecular target: T5, CYP2C8; assay: Kinetic analysis (Ki, inhibition type) in human liver microsomes: amodiaquine N-deethylation; details: pooled human liver microsomes
Protocol: as §4, §5, §6, §7

[12] = molecular target: T1, CYP2C9; assay: Kinetic analysis (Ki, inhibition type) in human liver microsomes: diclofenac 4-hydroxylation; details: pooled human liver microsomes
Protocol: as §4, §5, §6, §7

[13] = with 30 min preincubation in presence of NADPH
[14] = Lineweaver, Dixon and secondary reciprocal plots

T1 sequence (P11712 whole entry): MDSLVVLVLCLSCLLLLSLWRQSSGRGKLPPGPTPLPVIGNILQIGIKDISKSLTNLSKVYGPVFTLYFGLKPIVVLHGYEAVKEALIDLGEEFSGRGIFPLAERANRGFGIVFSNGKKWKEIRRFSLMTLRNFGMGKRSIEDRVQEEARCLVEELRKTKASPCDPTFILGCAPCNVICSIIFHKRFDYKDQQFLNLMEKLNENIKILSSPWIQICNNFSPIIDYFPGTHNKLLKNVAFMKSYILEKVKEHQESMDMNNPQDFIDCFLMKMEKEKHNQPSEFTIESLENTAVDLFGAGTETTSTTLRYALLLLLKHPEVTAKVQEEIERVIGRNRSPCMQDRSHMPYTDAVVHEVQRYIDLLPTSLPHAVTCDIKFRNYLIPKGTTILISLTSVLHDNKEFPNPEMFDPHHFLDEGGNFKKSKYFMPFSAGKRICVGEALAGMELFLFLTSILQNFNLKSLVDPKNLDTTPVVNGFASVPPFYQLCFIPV
T3 sequence (P10635 whole entry): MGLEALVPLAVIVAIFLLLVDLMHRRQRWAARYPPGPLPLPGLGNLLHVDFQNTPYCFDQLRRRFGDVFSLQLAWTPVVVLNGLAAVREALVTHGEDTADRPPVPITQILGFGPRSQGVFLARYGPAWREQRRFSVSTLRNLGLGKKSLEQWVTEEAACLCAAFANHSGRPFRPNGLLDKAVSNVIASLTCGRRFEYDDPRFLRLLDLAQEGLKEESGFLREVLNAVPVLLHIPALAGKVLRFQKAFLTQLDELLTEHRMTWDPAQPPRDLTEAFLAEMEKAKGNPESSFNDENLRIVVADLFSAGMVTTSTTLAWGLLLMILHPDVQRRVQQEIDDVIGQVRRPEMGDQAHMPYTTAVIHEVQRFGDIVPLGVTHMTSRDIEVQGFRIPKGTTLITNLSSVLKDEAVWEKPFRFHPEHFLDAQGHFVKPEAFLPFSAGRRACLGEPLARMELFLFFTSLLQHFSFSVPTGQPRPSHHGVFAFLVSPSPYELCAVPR
T2 sequence (P33261 whole entry): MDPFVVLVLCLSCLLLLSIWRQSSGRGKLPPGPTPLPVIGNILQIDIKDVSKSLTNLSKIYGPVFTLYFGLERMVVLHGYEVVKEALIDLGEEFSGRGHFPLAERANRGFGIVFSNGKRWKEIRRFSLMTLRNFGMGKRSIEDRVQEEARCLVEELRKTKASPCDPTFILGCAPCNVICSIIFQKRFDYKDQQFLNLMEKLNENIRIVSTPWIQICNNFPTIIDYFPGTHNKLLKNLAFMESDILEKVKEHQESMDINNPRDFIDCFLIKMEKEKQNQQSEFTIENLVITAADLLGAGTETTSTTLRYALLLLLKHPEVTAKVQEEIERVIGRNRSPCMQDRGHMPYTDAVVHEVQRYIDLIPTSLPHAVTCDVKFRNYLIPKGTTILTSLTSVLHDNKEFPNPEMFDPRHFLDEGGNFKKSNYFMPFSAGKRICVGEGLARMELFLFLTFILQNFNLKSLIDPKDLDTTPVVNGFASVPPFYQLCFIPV

COc1ccc(-c2cc(=O)c3c(O)c(OC)c(O)cc3o2)cc1OC [eupatilin, 2-(3,4-dimethoxyphenyl)-5,7-dihydroxy-6-methoxychromen-4-one]
IC50 ([1]; no preincubation): 4.1 ± 0.49 µM
IC50 [1, 13]: 4.9 ± 0.91 µM
IC50 ([2]; no preincubation): 48.1 ± 12 µM
IC50 [2, 13]: 57.7 ± 16.3 µM
Ki ([3]; 10-100 μM [S]-mephenytoin): 28.7 ± 3.6 µM
Inhibition type, S-mephenytoin 4'-hydroxylation (CYP2C19) [3]: mixed
Inhibition type, S-mephenytoin 4'-hydroxylation (CYP2C19) ([3]; listed as Eupatilin): mixed-type
Ki ([4]; 0.5-5 μM bufuralol): 94.6 ± 5.8 µM
Inhibition type, bufuralol 1'-hydroxylation (CYP2D6) [4, 14]: competitive
Ki ([5]; 10-100 μM phenacetin): 2300 ± 180 nM
Inhibition type, phenacetin O-deethylation (CYP1A2) [5, 14]: competitive
IC50 [6]: > 100 µM
Inhibition of CYP3A4-catalyzed midazolam 1'-hydroxylation at the highest concentration tested ([7]; 100 μM, human liver microsomes): negligible inhibition
IC50, midazolam 1'-hydroxylation (CYP3A) ([7]; no preincubation): No inhibition
IC50, midazolam 1'-hydroxylation (CYP3A) [7, 13]: No inhibition
Inhibition of CYP2A6-catalyzed coumarin 7-hydroxylation at the highest concentration tested ([8]; 100 μM, human liver microsomes): negligible inhibition
IC50, coumarin 7-hydroxylation (CYP2A6) ([8]; no preincubation): No inhibition
IC50, coumarin 7-hydroxylation (CYP2A6) [8, 13]: No inhibition
IC50 ([9]; no preincubation): 58.7 ± 7.6 µM
IC50 [9, 13]: 79.1 ± 7.5 µM
IC50 ([10]; no preincubation): 9.4 ± 1.5 µM
IC50 [10, 13]: 11.8 ± 1.3 µM
Ki ([11]; 0.5-5 μM amodiaquine): 102 ± 8.9 µM
Inhibition type, amodiaquine N-deethylation (CYP2C8) [11, 14]: competitive
Ki ([12]; 1-50 μM diclofenac): 1600 ± 170 nM
Inhibition type, diclofenac 4-hydroxylation (CYP2C9) [12, 14]: mixed
